Measured values reported in patent publication US12655101B2, “Small molecules with antibacterial activity” (NEW MEXICO TECH UNIVERSITY RESEARCH PARK CORPORATION, priority 2021, dated 2026).
Converted amounts (≈) assume the structure as drawn. Read-outs that look alike come from different tables or passages of the source.

Legend:
[1] = tested on: A. baumannii ATCC BAA-1797; experiment: MIC on A. baumannii ATCC BAA-1797; assay type: cell-based
Experimental: A. baumannii: A. baumannii ATCC BAA-1797 was grown from a glycerol stock by placing a small volume of cells onto a MHA plate. The MHA plate was incubated overnight at 37° C. A single colony was used to inoculate MHB to obtain a bacterial broth suspension. The MHB broth suspension was grown at 37° C. on a rotary shaking incubator (100 rpm) for 12 hours. The bacterial cell concentration was adjusted to ˜5×10^5 CFU/mL in MHB or MHB+10%, 20% or 40% FBS using OD at 595 nm. 500 μL aliquots of the adjusted bacterial cell suspension were placed into borosilicate glass tubes. The cell suspensions were treated with a compound of interest, and the treatments were serially diluted two-fold. The culture tubes were incubated for 18 hours at 37° C. Efficacy was either assessed visually or by adding 10% v/v MTT (5 mg/mL stock) after the 18 hour incubation period. The cell suspensions were subsequently incubated for 10 minutes to allow the MTT reagent to carry out the colorimetric reaction. The OD was read at 595 nm.

MRSA ATCC BAA-44 = experiment: MIC on MRSA ATCC BAA-44; assay type: cell-based, S. aureus; details: Staphylococcus aureus
Experimental: MRSA BAA-44: MRSA ATCC BAA-44 was grown from a glycerol stock by placing a small volume of cells onto a Mueller-Hinton agar plate (MHA). The MHA plate was incubated overnight at 37° C. A single colony was used to inoculate Mueller-Hinton broth (MHB) to obtain a bacterial broth suspension. The MHB broth suspension was grown at 37° C. on a rotary shaking incubator (100 rpm) for 12 hours. The bacterial cell concentration was adjusted to ˜5×10^5 colony forming units per milliliter (CFU/mL) in MHB−/+10, 20, or 40% FBS using optical density (OD) at 595 nm. 500 μL aliquots of the adjusted bacterial cell suspension were placed into borosilicate glass tubes. The cell suspensions were treated with 100 μM compound of interest and serially diluted two-fold. The culture tubes were incubated for 18 hours at 37° C. Efficacy was either assessed visually or by adding 10% v/v MTT (5 mg/mL stock) after the 18 hour incubation period, where the cell suspensions were subsequently incubated for 10 minutes to allow the MTT reagent to carry out the colorimetric reaction.

[2] = Acinetobacter baumannii, ATCC 1797 / ATCC BAA-1797, 0% FBS, read-out: MIC (μM) in MDR A. baumannii ATCC 1797 0% FBS
[3] = 10% FBS, read-out: MIC (μM) in MRSA BAA-44 10% FBS
[4] = Acinetobacter baumannii, ATCC 1797 / ATCC BAA-1797, 10% FBS, read-out: MIC (μM) in MDR A. baumannii ATCC 1797 10% FBS
[5] = Acinetobacter baumannii, ATCC 1797 / ATCC BAA-1797, read-out: MIC (μM) in MDR A. baumannii ATCC 1797 40% FBS, 40% FBS
[6] = no serum (note in the cell), read-out: MIC (μM) in MRSA BAA-44
[7] = Acinetobacter baumannii, ATCCBAA1797, 18 h, read-out: MIC in the presence of 40% FBS, A. baumannii ATCC BAA-1797, 40% FBS
[8] = Acinetobacter baumannii, ATCCBAA1797, A. baumannii ATCC BAA-1797, absence of serum, read-out: MIC in the absence of serum
[9] = in FBS (note in the cell, percentage not given), read-out: MIC (μM) in MRSA BAA-44

| MIC [1, 2] [µM] | MIC (MRSA ATCC BAA-44; [3]) [µM] | MIC [1, 4] [µM] | MIC [1, 5] [µM] | Structure (SMILES) | other results |
| --- | --- | --- | --- | --- | --- |
| 50 (≈ 21.6 µg/mL) | – | – | – | Brc1ccc(/N=N/c2c[nH]c3cccc(Nn4nnc5ccccc54)c23)cc1 [Compound 1, (E)-N-(3-((4-bromophenyl)diazenyl)-1H-indol-4-yl)-1H-benzo[d][1,2,3]triazol-1-amine] | – |
| > 100 | > 100 | – | – | Cn1cc(/N=N/c2ccc(Br)cc2)c2c([N+](C)(C)C)cccc21 [Compound 2, (E)-3-((4-bromophenyl)diazenyl)-N,N,N,1-tetramethyl-1H-indol-4-aminium iodide] | – |
| > 100 | – | > 100 | – | O=[N+]([O-])c1ccc2[nH]cc(/N=N/c3ccc(Br)cc3)c2c1 [Compound 3, (E)-3-((4-bromophenyl)diazenyl)-5-nitro-1H-indole] | – |
| > 100 | – | > 100 | – | NC(=O)CC(N)C(=O)Nc1cccc2[nH]cc(/N=N/c3ccc(Br)cc3)c12 (centres unmarked) [Compound 5, (E)-2-amino-N^1-(3-((4-bromophenyl)diazenyl)-1H-indol-4-yl)succinamide] | – |
| 25 (≈ 11.4 µg/mL) | 25 (≈ 11.4 µg/mL) | > 100 | 100 (≈ 45.7 µg/mL) | N=C(N)NCCC(N)C(=O)Nc1cccc2[nH]cc(/N=N/c3ccc(Br)cc3)c12 (centres unmarked) [Compound 6, (E)-2-amino-N-(3-((4-bromophenyl)diazenyl)-1H-indol-4-yl)-4-guanidinobutanamide] | – |
| – | – | – | – | Clc1ccc(N/N=C/c2c[nH]c3ccccc23)cc1 [Compound 7, (E)-3-((2-(4-chlorophenyl)hydrazineylidene)methyl)-1H-indole] | MIC (MRSA ATCC BAA-44; read-out: MIC (μM) in MRSA BAA-44 10% FBS): 100 µM (≈ 27 µg/mL); MIC ([1]; Acinetobacter baumannii, ATCC 1797 / ATCC BAA-1797, read-out: MIC (μM) in MDR A. baumannii ATCC 1797 0% FBS): 5 µM (≈ 1.35 µg/mL); MIC ([1]; Acinetobacter baumannii, ATCC 1797 / ATCC BAA-1797, read-out: MIC (μM) in MDR A. baumannii ATCC 1797 10% FBS): 25 µM (≈ 6.74 µg/mL); MIC ([1]; Acinetobacter baumannii, ATCC 1797 / ATCC BAA-1797, read-out: MIC (μM) in MDR A. baumannii ATCC 1797 40% FBS): 50 µM (≈ 13.5 µg/mL) |
| 40 (≈ 9.41 µg/mL) | > 100 | > 100 | 50 (≈ 11.8 µg/mL) | C(=N\Nc1ccccc1)/c1c[nH]c2ccccc12 [Compound 8, (E)-3-((2-phenylhydrazineylidene)methyl)-1H-indole] | – |
| > 100 | – | – | – | O=[N+]([O-])c1ccc(N/N=C/c2c[nH]c3ccccc23)cc1 [Compound 9, (E)-3-((2-(4-nitrophenyl)hydrazineylidene)methyl)-1H-indole] | – |
| > 100 | – | – | – | O=C(O)c1ccc(N/N=C/c2c[nH]c3ccccc23)cc1 [Compound 10, (E)-4-(2-((1H-indol-3-yl)methylene)hydrazineyl) benzoic acid] | MIC (MRSA ATCC BAA-44; [6]): 100 µM (≈ 27.9 µg/mL) |
| > 100 | > 100 | > 100 | > 100 | N#CCC(=O)N/N=C/c1c[nH]c2ccccc12 [Compound 11, (E)-N′-((1H-indol-3-yl)methylene)-2-cyanoacetohydrazide] | – |
| 12.5 (≈ 3.37 µg/mL) | – | > 100 | > 100 | Clc1ccccc1N/N=C/c1c[nH]c2ccccc12 [Compound 12, (E)-3-((2-(2-chlorophenyl)hydrazineylidene)methyl)-1H-indole] | MIC (MRSA ATCC BAA-44; [6]): 25 µM (≈ 6.74 µg/mL) |
| 5 (≈ 1.26 µg/mL) | 100 (≈ 25.1 µg/mL) | 100 (≈ 25.1 µg/mL) | > 100 | Oc1cccc2[nH]cc(/C=N/Nc3ccccc3)c12 [Compound 13, (E)-3-((2-phenylhydrazineylidene)methyl)-1H-indol-4-ol] | – |
| 3 (≈ 1.33 µg/mL) | > 100 | > 100 | > 100 | N=C(N)NCCC[C@H](N)C(=O)Oc1cccc2[nH]cc(/C=N/Nc3ccc(Cl)cc3)c12 [Compound 16, (E)-3-((2-(4-chlorophenyl)hydrazineylidene)methyl)-1H-indol-4-yl argininate] | – |
| 3 (≈ 1.15 µg/mL) | – | – | > 100 | CC(C)(C)OC(=O)Nc1cccc2[nH]cc(/C=N/Nc3ccc(Cl)cc3)c12 [Compound 18] | MIC (MRSA ATCC BAA-44; MRSA ATCC BAA-44, serum not stated, read-out: MIC): 12.5 µM (≈ 4.81 µg/mL); MIC (MRSA ATCC BAA-44; [6]): 12.5 µM (≈ 4.81 µg/mL); MIC [1, 7]: > 100 µM; MIC [1, 8]: 3 µM (≈ 1.15 µg/mL) |
| > 100 | > 100 | – | > 100 | C(=N\Nc1ncccn1)/c1c[nH]c2ccccc12 [Compound 19, (E)-3-((2-(pyrimidin-2-yl)hydrazineylidene)methyl)-1H-indole] | – |
| 25 (≈ 8.25 µg/mL) | – | – | > 100 | Oc1cccc2[nH]cc(/C=N/Nc3ccc(Br)cc3)c12 [Compound 20, (E)-3-((2-(4-bromophenyl)hydrazineylidene)methyl)-1H-indol-4-ol] | MIC (MRSA ATCC BAA-44; [9]): > 100 µM; MIC (MRSA ATCC BAA-44; [6]): 25 µM (≈ 8.25 µg/mL) |
| 25 (≈ 6.73 µg/mL) | – | – | > 100 | Oc1cccc2[nH]cc(/C=N/Nc3ccc(F)cc3)c12 [Compound 21, (E)-3-((2-(4-fluorophenyl)hydrazineylidene)methyl)-1H-indol-4-ol] | MIC (MRSA ATCC BAA-44; [9]): > 100 µM; MIC (MRSA ATCC BAA-44; [6]): 25 µM (≈ 6.73 µg/mL) |
| 25 (≈ 10.7 µg/mL) | – | – | > 100 | CCCCCC(=O)Oc1cccc2[nH]cc(/C=N/Nc3ccc(Br)cc3)c12 [Compound 22, (E)-3-((2-(4-bromophenyl)hydrazineylidene)methyl)-1H-indol-4-yl hexanoate] | MIC (MRSA ATCC BAA-44; [9]): > 100 µM; MIC (MRSA ATCC BAA-44; [6]): 25 µM (≈ 10.7 µg/mL) |
| 12.5 | – | – | – | Brc1ccc(N/N=C/c2c[nH]c3ccc(Br)cc23)cc1 [Compound 23, (E)-1-((5-bromo-1H-indol-3-yl)methylene)-2-(4-bromophenyl)hydrazin-1-ium chloride] | MIC ([1]; Acinetobacter baumannii, ATCC 1797 / ATCC BAA-1797, in human serum (note in the cell of the 40% FBS column), read-out: MIC (μM) in MDR A. baumannii ATCC 1797): < 100 µM |
| < 100 | – | – | > 100 | CC(=O)n1cc(/C=N/Nc2ccc(Cl)cc2)c2ccccc21 [Compound 24, (E)-1-(3-((2-(4-chlorophenyl)hydrazineylidene)methyl)-1H-indol-1-yl)ethan-1-one] | – |
| 25 (≈ 9.16 µg/mL) | – | – | 100 (≈ 36.6 µg/mL) | N#Cc1ccc(N/N=C/c2c[nH]c3cccc(OCc4ccccc4)c23)cc1 [Compound 28] | – |
| > 100 | – | – | > 100 | O=S(=O)(N/N=C/c1c[nH]c2cccc(OCc3ccccc3)c12)c1ccccc1 [Compound 29, (E)-N′-((4-(benzloxy)-1H-indol-3-yl)methylene)benzenesulfonohydrazide] | – |
| > 100 | > 100 | > 100 | > 100 | COc1ccc(N/N=C/c2c[nH]c3cccc(OCc4ccccc4)c23)cc1 [Compound 30, (E)-4-(benzyloxy)-3-((2-(4-methoxyphenyl) hydrazineylidene)methyl)-1H-indole] | MIC [1, 7]: 100 µM; MIC [1, 8]: 20 µM (≈ 7.43 µg/mL) |
| > 100 | – | – | – | Clc1ccc(N/N=C/c2c[nH]c3cccc(OCc4ccccc4)c23)c(Cl)c1 [Compound 32, (E)-4-(benzyloxy)-3-((2-(2,4-dichlorophenyl)hydrazineylidene)methyl)-1H-indole] | – |
| > 100 | – | – | > 100 | Nc1cccc2c(S(=O)(=O)N/N=C/c3c[nH]c4cccc(OCc5ccccc5)c34)cccc12 [Compound 33, (E)-5-amino-N′-((4-(benzyloxy)-1H-indol-3-yl)methylene)naphthalene-1-sulfonohydrazide] | MIC (MRSA ATCC BAA-44; [6]): > 100 µM |

| Structure (SMILES) | MIC [1, 2] [µM] | MIC (MRSA ATCC BAA-44; [3]) [µM] | MIC [1, 4] [µM] | MIC [1, 5] [µM] | other results |
| --- | --- | --- | --- | --- | --- |
| CC(C)(C)OC(=O)N[C@@H](CCCNC(=N)N)C(=O)Oc1cccc2[nH]cc(/C=N/Nc3ccc(Cl)cc3)c12 [Compound 17, (E)-3-((2-(4-chlorophenyl)hydrazineylidene)methyl)-1H-indol-4-yl (tert-butoxycarbonyl) argininate] | > 100 | > 100 | > 100 | > 100 | – |
| Fc1ccc(N/N=C/c2c[nH]c3cccc(OCc4ccccc4)c23)cc1 [Compound 31, (E)-4-(benzyloxy)-3-((2-(4-fluorophenyl)hydrazineylidene)methyl)-1H-indole] | – | ~100 (≈ 35.9 µg/mL) | – | – | MIC ([1]; 0% FBS, read-out: MIC (μM) in MDR A. baumannii ATCC 1797 0% FBS): 12.5 µM (≈ 4.49 µg/mL) |
